According to PubChem BioAssay (NCI):
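Five compound concentrations were applied to cells in 96-well plates for 48 hours; endpoints were derived by simple linear interpolation of the resulting dose-response curve. At the TGI there is no net growth.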

Legend:
Assay in all cases: NCI-60 cell line screen, 48 h
786-0 renal = system: 786-0 renal
A498 renal = system: A498 renal
A549 NSCLC = system: A549 NSCLC
ACHN renal = system: ACHN renal
CAKI-1 renal = system: CAKI-1 renal
CCRF-CEM leukemia = system: CCRF-CEM leukemia
COLO 205 colon = system: COLO 205 colon
DLD-1 colon = system: DLD-1 colon
DMS 114 small cell lung = system: DMS 114 small cell lung
DMS 273 small cell lung = system: DMS 273 small cell lung
EKVX NSCLC = system: EKVX NSCLC
HCC-2998 colon = system: HCC-2998 colon
HCT-116 colon = system: HCT-116 colon
HCT-15 colon = system: HCT-15 colon
HL-60(TB) leukemia = system: HL-60(TB) leukemia
HOP-18 NSCLC = system: HOP-18 NSCLC
HOP-62 NSCLC = system: HOP-62 NSCLC
HOP-92 NSCLC = system: HOP-92 NSCLC
HT29 colon = system: HT29 colon
IGROV1 ovarian = system: IGROV1 ovarian
K-562 leukemia = system: K-562 leukemia
KM12 colon = system: KM12 colon
KM20L2 colon = system: KM20L2 colon
LXFL 529 NSCLC = system: LXFL 529 NSCLC
M14 melanoma = system: M14 melanoma
M19-MEL melanoma = system: M19-MEL melanoma
MALME-3M melanoma = system: MALME-3M melanoma
MOLT-4 leukemia = system: MOLT-4 leukemia
NCI-H226 lung = system: NCI-H226 lung
NCI-H23 lung = system: NCI-H23 lung
NCI-H460 lung = system: NCI-H460 lung
NCI-H522 lung = system: NCI-H522 lung
OVCAR-3 ovarian = system: OVCAR-3 ovarian
OVCAR-4 ovarian = system: OVCAR-4 ovarian
OVCAR-5 ovarian = system: OVCAR-5 ovarian
OVCAR-8 ovarian = system: OVCAR-8 ovarian
RPMI-8226 leukemia = system: RPMI-8226 leukemia
RXF-631 renal = system: RXF-631 renal
SF-268 CNS = system: SF-268 CNS
SF-295 CNS = system: SF-295 CNS
SF-539 CNS = system: SF-539 CNS
SK-MEL-28 melanoma = system: SK-MEL-28 melanoma
SK-MEL-5 melanoma = system: SK-MEL-5 melanoma
SK-OV-3 ovarian = system: SK-OV-3 ovarian
SN12C renal = system: SN12C renal
SNB-19 CNS = system: SNB-19 CNS
SNB-75 CNS = system: SNB-75 CNS
SNB-78 CNS = system: SNB-78 CNS
SW-620 colon = system: SW-620 colon
TK-10 renal = system: TK-10 renal
U251 CNS = system: U251 CNS
UACC-257 melanoma = system: UACC-257 melanoma
UACC-62 melanoma = system: UACC-62 melanoma
UO-31 renal = system: UO-31 renal
LOX IMVI melanoma = system: LOX IMVI melanoma
RXF 393 renal = system: RXF 393 renal
SK-MEL-2 melanoma = system: SK-MEL-2 melanoma

O=C(CCc1n[nH]c(=S)o1)Nc1cc(Cl)c(Cl)cc1Cl
TGI (786-0 renal): 63.6 µM | TGI (A498 renal): 91.8 µM | TGI (A549 NSCLC): > 100 µM | TGI (ACHN renal): > 100 µM | TGI (CAKI-1 renal): > 100 µM | TGI (CCRF-CEM leukemia): > 100 µM | TGI (COLO 205 colon): > 100 µM | TGI (DLD-1 colon): 86.3 µM | TGI (DMS 114 small cell lung): > 100 µM | TGI (DMS 273 small cell lung): 72.5 µM | TGI (EKVX NSCLC): > 100 µM | TGI (HCC-2998 colon): > 100 µM | TGI (HCT-116 colon): 30 µM | TGI (HCT-15 colon): 49.9 µM | TGI (HL-60(TB) leukemia): > 100 µM | TGI (HOP-18 NSCLC): > 100 µM | TGI (HOP-62 NSCLC): > 100 µM | TGI (HOP-92 NSCLC): > 100 µM | TGI (HT29 colon): > 100 µM | TGI (IGROV1 ovarian): > 100 µM | TGI (K-562 leukemia): 49 µM | TGI (KM12 colon): > 100 µM | TGI (KM20L2 colon): > 100 µM | TGI (LXFL 529 NSCLC): > 100 µM | TGI (M14 melanoma): > 100 µM | TGI (M19-MEL melanoma): > 100 µM | TGI (MALME-3M melanoma): > 100 µM | TGI (MOLT-4 leukemia): > 100 µM | TGI (NCI-H226 lung): > 100 µM | TGI (NCI-H23 lung): > 100 µM | TGI (NCI-H460 lung): > 100 µM | TGI (NCI-H522 lung): > 100 µM | TGI (OVCAR-3 ovarian): > 100 µM | TGI (OVCAR-4 ovarian): > 100 µM | TGI (OVCAR-5 ovarian): > 100 µM | TGI (OVCAR-8 ovarian): > 100 µM | TGI (RPMI-8226 leukemia): 50.8 µM | TGI (RXF-631 renal): > 100 µM | TGI (SF-268 CNS): > 100 µM | TGI (SF-295 CNS): > 100 µM | TGI (SF-539 CNS): > 100 µM | TGI (SK-MEL-28 melanoma): > 100 µM | TGI (SK-MEL-5 melanoma): > 100 µM | TGI (SK-OV-3 ovarian): > 100 µM | TGI (SN12C renal): > 100 µM | TGI (SNB-19 CNS): > 100 µM | TGI (SNB-75 CNS): > 100 µM | TGI (SNB-78 CNS): > 100 µM | TGI (SW-620 colon): 31.4 µM | TGI (TK-10 renal): > 100 µM | TGI (U251 CNS): > 100 µM | TGI (UACC-257 melanoma): > 100 µM | TGI (UACC-62 melanoma): > 100 µM | TGI (UO-31 renal): > 100 µM

CC1CCCP(=O)(c2ccccc2)CC1 (stereo unspecified)
TGI (786-0 renal): > 100 µM | TGI (A498 renal): > 100 µM | TGI (A549 NSCLC): > 100 µM | TGI (ACHN renal): > 100 µM | TGI (CAKI-1 renal): > 100 µM | TGI (CCRF-CEM leukemia): > 100 µM | TGI (COLO 205 colon): > 100 µM | TGI (DLD-1 colon): > 100 µM | TGI (DMS 114 small cell lung): > 100 µM | TGI (DMS 273 small cell lung): > 100 µM | TGI (EKVX NSCLC): > 100 µM | TGI (HCC-2998 colon): > 100 µM | TGI (HCT-15 colon): > 100 µM | TGI (HOP-18 NSCLC): 0.958 µM | TGI (HOP-62 NSCLC): > 100 µM | TGI (HT29 colon): > 100 µM | TGI (IGROV1 ovarian): > 100 µM | TGI (K-562 leukemia): > 100 µM | TGI (KM12 colon): > 100 µM | TGI (KM20L2 colon): > 100 µM | TGI (LOX IMVI melanoma): > 100 µM | TGI (LXFL 529 NSCLC): > 100 µM | TGI (M14 melanoma): > 100 µM | TGI (M19-MEL melanoma): > 100 µM | TGI (MALME-3M melanoma): > 100 µM | TGI (MOLT-4 leukemia): > 100 µM | TGI (NCI-H23 lung): > 100 µM | TGI (NCI-H460 lung): > 100 µM | TGI (OVCAR-3 ovarian): > 100 µM | TGI (OVCAR-4 ovarian): > 100 µM | TGI (OVCAR-5 ovarian): > 100 µM | TGI (OVCAR-8 ovarian): > 100 µM | TGI (RPMI-8226 leukemia): > 100 µM | TGI (RXF 393 renal): > 100 µM | TGI (RXF-631 renal): > 100 µM | TGI (SF-268 CNS): > 100 µM | TGI (SF-295 CNS): > 100 µM | TGI (SF-539 CNS): > 100 µM | TGI (SK-MEL-2 melanoma): > 100 µM | TGI (SK-MEL-28 melanoma): > 100 µM | TGI (SK-MEL-5 melanoma): > 100 µM | TGI (SK-OV-3 ovarian): > 100 µM | TGI (SN12C renal): > 100 µM | TGI (SNB-19 CNS): > 100 µM | TGI (SNB-75 CNS): > 100 µM | TGI (SNB-78 CNS): > 100 µM | TGI (SW-620 colon): > 100 µM | TGI (TK-10 renal): > 100 µM | TGI (U251 CNS): > 100 µM | TGI (UACC-257 melanoma): > 100 µM | TGI (UACC-62 melanoma): > 100 µM | TGI (UO-31 renal): > 100 µM
